Assay results taken from ChEMBL document CHEMBL5032490, “Neuroactive Type-A γ-Aminobutyric Acid Receptor Allosteric Modulator Steroids from the Hypobranchial Gland of Marine Mollusk, Conus geographus” (J Med Chem, 2021).
The source made the active and inactive calls.

Assays:
[1] = (§1) Reduction in Kcl-induced cytosolic calcium ion concentration in mouse DRG neurons at 10 microg/ml measured after 1 hr by Fura2AM dye based fluorescence microscopic analysis in response to Kcl; type: functional, Neuron; design: scale not given: the % may be the effect or the level left; settings: dose 10 µg/ml
[2] = Induction of ATP-induced cytosolic calcium ion concentration in mouse DRG neurons assessed as neuron population at 10 microg/ml measured after 1 hr by Fura2AM dye based fluorescence microscopic; type: functional; settings: dose 10 µg/ml
[3] = Induction of cytosolic calcium ion concentration in mouse DRG neurons at 10 microg/ml measured after 1 hr by Fura2AM dye based fluorescence microscopic analysis; type: functional, Neuron; settings: dose 10 µg/ml
[4] = Induction of Kcl-induced cytosolic calcium ion concentration in mouse DRG neurons in response to Kcl at 10 microg/ml measured after 1 hr by Fura2AM dye based fluorescence microscopic analysis; type: functional, Neuron; settings: dose 10 µg/ml
[5] = Reduction in ATP-induced cytosolic calcium ion concentration in mouse DRG neurons at 10 microg/ml measured after 1 hr by Fura2AM dye based fluorescence microscopic analysis in response to ATP; type: functional, Neuron; design: scale not given: the % may be the effect or the level left; settings: dose 10 µg/ml
[6] = Reduction of ATP and Kcl-induced increase in cytosolic Ca2+ ion concentration mouse DRG other neuron subtype assessed as neuron population at 10 uM measured after 1 hr by Fura2AM dye based fluorescence microscopic analysis; type: functional; design: scale not given: the % may be the effect or the level left
[7] = Induction of cytosolic calcium ion concentration in mouse non-peptidergic nociceptive DRG neuron at 10 uM measured after 1 hr by Fura2AM dye based fluorescence microscopic analysis; type: functional
[8] = Induction of ATP and Kcl-induced increase in cytosolic Ca2+ ion concentration mouse […] assessed as neuron population at 10 uM measured after 1 hr by Fura2AM dye based fluorescence microscopic analysis; type: functional
[9] = Reduction of ATP and Kcl-induced increase in cytosolic Ca2+ ion concentration mouse peptidergic nociceptive DRG neuron assessed as neuron population at 10 uM measured after 1 hr by Fura2AM dye based fluorescence microscopic analysis; type: functional; design: scale not given: the % may be the effect or the level left
[10] = Reduction of ATP and Kcl-induced increase in cytosolic Ca2+ ion concentration mouse non-peptidergic nociceptive DRG neuron assessed as neuron population at 10 uM measured after 1 hr by Fura2AM dye based fluorescence microscopic analysis; type: functional; design: scale not given: the % may be the effect or the level left
[11] = Induction of ATP and Kcl-induced increase in cytosolic Ca2+ ion concentration mouse non-peptidergic nociceptive DRG neuron assessed as neuron population at 10 uM measured after 1 hr by Fura2AM dye based fluorescence microscopic analysis; type: functional
[12] = Induction of cytosolic calcium ion concentration in mouse DRG other neuron subtype at 10 uM measured after 1 hr by Fura2AM dye based fluorescence microscopic analysis; type: functional
[13] = Reduction of ATP and Kcl-induced increase in cytosolic Ca2+ ion concentration mouse […] assessed as neuron population at 10 uM measured after 1 hr by Fura2AM dye based fluorescence microscopic analysis; type: functional; design: scale not given: the % may be the effect or the level left
[14] = Induction of cytosolic calcium ion concentration in mouse peptidergic nociceptive DRG neuron at 10 uM measured after 1 hr by Fura2AM dye based fluorescence microscopic analysis; type: functional
[15] = Induction of ATP and Kcl-induced increase in cytosolic Ca2+ ion concentration mouse DRG other neuron subtype assessed as neuron population at 10 uM measured after 1 hr by Fura2AM dye based fluorescence microscopic analysis; type: functional
[16] = Induction of cytosolic calcium ion concentration in mouse microglia cells at 10 uM measured after 1 hr by Fura2AM dye based fluorescence microscopic analysis; type: functional
[17] = Induction of ATP and Kcl-induced increase in cytosolic Ca2+ ion concentration mouse peptidergic nociceptive DRG neuron assessed as neuron population at 10 uM measured after 1 hr by Fura2AM dye based fluorescence microscopic analysis; type: functional
Neuron [18] = assay: as §1; type: functional; settings: dose 10.0 µg/ml
Neuron [19] = assay: Effect on mouse GABA receptor expressed in mouse peptidergic nociceptive DRG neurons at 10 uM; type: tissue-based
Neuron [20] = assay: Effect on mouse GABA receptor expressed in mouse non-peptidergic nociceptive DRG neurons at 10 uM; type: tissue-based
Neuron [21] = assay: Effect on mouse GABA receptor expressed in mouse C-low-threshold mechanoreceptors DRG neurons at 10 uM; type: tissue-based
Neuron [22] = assay: Effect on mouse GABA receptor expressed in mouse DRG neurons at 10 uM using cold thermosensors; type: tissue-based

`CC(C)C(=O)CC[C@@H](C)[C@H]1CC[C@H]2[C@@H]3C(=O)C=C4C=CCC[C@]4(C)[C@H]3CC[C@]12C` gave an Activity [1] of 1%, an Activity [2] of 11% and an Activity [3] of 6%. It also gave an Activity [4] of 19% and an Activity [5] of 13%.
With `C[C@H](CC[C@H](O)C(C)(C)O)[C@H]1CC[C@H]2[C@@H]3C(=O)C=C4C[C@@H](O)CC[C@]4(C)[C@H]3CC[C@]12C` the Activity [1] was 49%, the Activity [6] was 3% and the Activity [2] was 21%. It also gave an Activity [7] of 15%, an Activity [8] of 3% and an Activity [9] of 4%. The Activity [10] was 7%, the Activity [11] was 26% and the Activity [12] was 2%. It also gave an Activity [3] of 58%, an Activity [13] of 24% and an Activity [4] of 6%. For the same compound, the Activity [14] was 37%, the Activity [15] was 5% and the Activity [16] was 4%. It also gave an Activity [5] of 15% and an Activity [17] of 45%.
In the case of `C[C@H](CC[C@@H](O)C(C)(C)O)[C@H]1CC[C@H]2[C@@H]3C(=O)C=C4C[C@H](O)CC[C@]4(C)[C@H]3CC[C@]12C`, the Activity (Neuron [18]) is reported as “inactive”, the Activity [2] is reported as 33% and the Activity [3] is reported as 19%. For the same compound, the Activity [4] was 54% and the Activity [5] was 3%.
For `CC(C)[C@@H](C)/C=C/[C@@H](C)[C@H]1CC[C@H]2C3=CC=C4C[C@@H](O)CC[C@]4(C)[C@H]3CC[C@]12C`, the Activity (Neuron [19]) was “inactive”, the Activity (Neuron [20]) was “inactive” and the Activity (Neuron [21]) was “inactive”. The Activity (Neuron [22]) was “inactive”.
For `CC(C)CCC[C@@H](C)[C@H]1CC[C@H]2[C@@H]3CC=C4C[C@@H](O)CC[C@]4(C)[C@H]3CC[C@]12C`, the Activity (Neuron [19]) was “inactive”, the Activity (Neuron [20]) was “inactive” and the Activity (Neuron [21]) was “inactive”. The Activity (Neuron [22]) was “inactive”.
`C[C@H](CC[C@@H](O)C(C)(C)O)[C@H]1CC[C@H]2[C@@H]3C(=O)C=C4C=CCC[C@]4(C)[C@H]3CC[C@]12C` showed an Activity [1] of 4%, an Activity [2] of 36% and an Activity [3] of 3%. For the same compound, the Activity [4] was 38% and the Activity [5] was 3%.
In the case of `C[C@H](CCC(=O)C(C)(C)O)[C@H]1CC[C@H]2[C@@H]3C(=O)C=C4C=CCC[C@]4(C)[C@H]3CC[C@]12C`, the Activity [1] is reported as 2%, the Activity [2] is reported as 9% and the Activity [3] is reported as 35%. The Activity [4] was 22% and the Activity [5] was 17%.
For `C[C@H](CCC(=O)O)[C@H]1CC[C@H]2[C@@H]3[C@H](O)C[C@@H]4C[C@H](O)CC[C@]4(C)[C@H]3C[C@H](O)[C@]12C`, the Activity (Neuron [19]) was “inactive”, the Activity (Neuron [20]) was “inactive” and the Activity (Neuron [21]) was “inactive”. The Activity (Neuron [22]) was “inactive”.
